Tested on: adult patients with early type 2 diabetes mellitus and increased CV risk or established complications
Assay: Cardiovascular Safety Trial (linagliptin versus glimepiride)
Format: in vivo
Method: The effect of linagliptin on cardiovascular risk in adult patients with early type 2 diabetes mellitus and increased CV risk or established complications was evaluated in this Cardiovascular Safety Trial, a multi-center, multi-national, randomized, double-blind parallel group trial. The trial compared the risk of experiencing a major adverse cardiovascular event (MACE) between linagliptin and glimepiride when these were added to standard of care (including background therapy with metformin) based on regional standards for HbA1c and CV risk factors. The trial was event driven and patients were followed until at least 631 primary outcome events accrued.
A total of 6033 patients were treated (linagliptin 5 mg=3023; glimepiride 1 mg to 4 mg=3010) and followed for a median of 6.25 years (median time on treatment 5.9 years). Approximately 73% of the study population was Caucasian, 18% was Asian, and 5% was Black. The mean age was 64 years and 60% were male.
At baseline, disease characteristics were balanced. […] The trial population included 2030 (34%) patients ≥70 years of age, 2089 (35%) patients with cardiovascular disease, and 1130 (19%) patients with renal impairment with an eGFR <60 mL/min/1.73 m2 at baseline. Overall, the previous use of diabetes medications was balanced across treatment groups (metformin 83% continued as background therapy, sulfonylurea 28% discontinued prior to randomization), patients on insulin were excluded. The use of medications to reduce cardiovascular risk was also balanced (aspirin 47%, statins 65%, ACE inhibitors or ARBs 74%, beta blockers 39%, and calcium channel blockers 30%).
The primary endpoint in this Cardiovascular Safety Trial was the time to first occurrence of three point (3P) MACE. A major adverse cardiac event was defined as a cardiovascular death or a nonfatal myocardial infarction (MI) or a nonfatal stroke. The statistical analysis plan tested for non-inferiority for the occurrence of 3P MACE. The key secondary endpoint evaluated the composite of treatment sustainability defined as the proportion of patients on study treatment, that maintain glycemic control (HbA1c≤7.0%) without need for additional antidiabetic drug therapy (rescue medication), without any moderate (symptomatic with glucose value <70 mg/dL) or severe (requiring assistance) hypoglycemic episodes, and without >2% weight gain from baseline.
Cardiovascular Outcome Trial of Linagliptin Versus Glimepriride in Type 2 Diabetes—assessing long-term cardiovascular impact of linagliptin versus the sulphonylurea glimepiride in subjects with early type 2 diabetes and increased cardiovascular risk or established complications. […]
Type 2 diabetes patient with insufficient glycemic control (naïve or currently treated (mono or dual therapy) with e.g. metformin and/or an alpha-glucosidase inhibitor (e.g. having HbA1c 6.5-8.5%), or currently treated (mono or dual therapy) with e.g. a sulphonylurea or glinide, with or without metformin or an alpha-glucosidase inhibitor (e.g. having HbA1c 6.5-7.5%)) and increased or high risk of cardiovascular events, e.g. defined as one or more of risk factors A), B), C) and D) indicated below, are randomized* and treated over a lengthy period (e.g. up to 432 weeks) with linagliptin (5 mg, q.d., optionally in combination with one or more other active substances, e.g. such as added to existing antidiabetic background) and compared with patients treated with the sulphonylurea glimepiride (1-4 mg once daily). * Upon randomization, if a patient is on a SU or glinide, this secretagogue therapy is discontinued and replaced with study medication. For patients not on a secretagogue, study medication is added to the existing regimen.
Time to first occurrence of any of the following adjudicated components of the primary composite endpoint: […]

[1] = baseline to Final Visit, observed cases including values after rescue medication
[2] = both, human, in vivo, 5.9 years
[3] = both, human, in vivo, 6.25 years
[4] = component of secondary composite
[5] = from end of titration (16 weeks) to final visit
[6] = median follow-up 6.25 years, listed as linagliptin

CC#CCn1c(N2CCC[C@@H](N)C2)nc2c1c(=O)n(Cc1nc(C)c3ccccc3n1)c(=O)n2C [Linagliptin, 1-[(4-methyl-quinazolin-2-yl)methyl]-3-methyl-7-(2-butyn-1-yl)-8-(3-(R)-amino-piperidin-1-yl)-xanthine]
patients with macroalbuminuria (>300 mg/g) (at Final Visit): 1.4% | patients with microalbuminuria (≥30 to ≤300 mg/g) (at Final Visit): 14.1% | patients with normal UACR (<30 mg/g) (at baseline and at Final Visit): 58.4% | HBA1c, Change from baseline, adjusted mean (baseline to Final Visit, all observed cases): 0.06% | Creatinine, Change from baseline, adjusted mean [1]: 0.08 mg/dL | HDL, Change from baseline, adjusted mean [1]: 0.7 mg/dL | LDL, Change from baseline, adjusted mean [1]: -6.1 mg/dL | Total cholesterol, Change from baseline, adjusted mean [1]: -5.4 mg/dL | Triglyceride, Change from baseline, adjusted mean [1]: 1.7 mg/dL | Urinary albumin, Change from baseline, adjusted mean [1]: 43.4 mg/dL | third key secondary endpoint of treatment sustainability (on medication, HbA1c≤7.0%, no rescue, no >2% weight gain), responders (between Visit 6 and Final Visit): 17.4% | Hospitalization for heart failure (HHF), Incidence Rate per 1000 PY (both, human, in vivo): 6.4 per 1000 PY | Hospitalization for heart failure (HHF), Number of Subjects (both, human, in vivo): 112 | Moderate/severe hypoglycaemic episodes, odds ratio (both, human, in vivo): 0.16 | Patients with any moderate/severe hypoglycemic episodes, Number of Subjects (both, human, in vivo): 163 | Patients with any moderate/severe hypoglycemic episodes, Subjects (%) (both, human, in vivo): 5.6% | Secondary CV composite (4P-MACE), Incidence Rate per 1000 PY (both, human, in vivo): 23.4 per 1000 PY | rate of moderate or severe hypoglycemia [2]: 6.5% | severe hypoglycemia (requiring assistance) [2]: 0.3% | Premature discontinuation from trial medication due to adverse events [3]: 15.1% | Primary CV composite (3P-MACE), Hazard Ratio [3]: 0.98 | Primary CV composite (3P-MACE), Incidence Rate per 1000 PY [3]: 20.7 per 1000 PY | Secondary CV composite (4P-MACE), Hazard Ratio [3]: 0.99 | all-cause mortality, incidence rate per 1000 years at risk [3]: 16.8 per 1000 years at risk | any adjudicated event (secondary CV endpoint), % of patients [3]: 17.1% | any adjudicated event, HR [3]: 0.96 | hospitalisation for heart failure combined with CV death, incidence rate per 1000 years at risk [3]: 13.4 per 1000 years at risk | hospitalisation for heart failure, incidence rate per 1000 years at risk [3]: 6.4 per 1000 years at risk | investigator-reported heart failure AEs, % of patients [3]: 5.5% | investigator-reported heart failure AEs, HR [3]: 1.06 | investigator-reported heart failure AEs, incidence rate per 1000 years at risk [3]: 9.5 per 1000 years at risk | non-CV death, % of patients [3]: 4.6% | non-CV death, incidence rate per 1000 years at risk [3]: 7.6 per 1000 years at risk | proportion of patients with CV death contributing to the 3P-MACE [3]: 4.3% | proportion of patients with CV death contributing to the 4P-MACE [3]: 4.1% | proportion of patients with hospitalisation for unstable angina pectoris contributing to the 4P-MACE [3]: 1.9% | proportion of patients with non-fatal MI contributing to the 3P-MACE [3]: 4.7% | proportion of patients with non-fatal MI contributing to the 4P-MACE [3]: 4.4% | proportion of patients with non-fatal stroke contributing to the 3P-MACE [3]: 2.8% | proportion of patients with non-fatal stroke contributing to the 4P-MACE [3]: 2.8% | Creatinine, Comparison vs. glimepiride, Adjusted mean (change baseline to Final Visit): -0.01 mg/dL | FPG, Comparison vs. glimepiride, Adjusted mean (change baseline to Final Visit): -7.3 mg/dL | HBA1c, Comparison vs. glimepiride, Adjusted mean (change baseline to Final Visit): −0.09% | HDL, Comparison vs. glimepiride, Adjusted mean (change baseline to Final Visit): 0.5 mg/dL | LDL, Comparison vs. glimepiride, Adjusted mean (change baseline to Final Visit): 0.4 mg/dL | Total cholesterol, Comparison vs. glimepiride, Adjusted mean (change baseline to Final Visit): -0.4 mg/dL | Triglyceride, Comparison vs. glimepiride, Adjusted mean (change baseline to Final Visit): -3.5 mg/dL | Urinary albumin, Comparison vs. glimepiride, Adjusted mean (change baseline to Final Visit): -1.9 mg/dL | Patients with maintained glycemic control (HbA1c ≤7.0%), Number of Subjects [4]: 648 | Patients with maintained glycemic control (HbA1c ≤7.0%), Subjects (%) [4]: 21.5% | Patients with ≤2% weight gain, Number of Subjects [4]: 775 | Patients with ≤2% weight gain, Subjects (%) [4]: 25.7% | Secondary composite of treatment sustainability (on treatment, HbA1c ≤7.0%, no rescue, no moderate/severe hypoglycemic episodes, no >2% weight gain), Number of Subjects [5]: 481 | Secondary composite of treatment sustainability (second key secondary endpoint), Subjects (%) [5]: 16.0% | first intake of rescue medication, incidence rate per 1000 years at risk (in vivo): 128.6 per 1000 years at risk | rate of patients who used rescue medication (in vivo): 49.3% | safety profile in this trial population (in words) (in vivo): no new safety signal | time to 3P-MACE, non-inferiority test (in words) (in vivo): non-inferior | weight, adjusted mean difference (linagliptin compared with glimepiride over time): -1.61 kg | All-cause mortality, Hazard Ratio (linagliptin vs glimepiride): 0.91 | HHF or CV death, Hazard Ratio (linagliptin vs glimepiride): 1.00 | non-CV death, hazard ratio (linagliptin vs glimepiride): 0.82 | third key secondary endpoint of treatment sustainability, OR (linagliptin vs glimepiride): 1.29 | HHF or CV death, Hazard Ratio (linagliptin vs glimepiride, listed as linagliptin): 1.00 | Secondary composite of treatment sustainability (second key secondary endpoint), Odds Ratio (linagliptin vs glimepiride, logistic regression): 1.68 | All-cause mortality, Incidence Rate per 1000 PY (median follow-up 6.25 years): 16.8 per 1000 PY | All-cause mortality, Number of Subjects (median follow-up 6.25 years): 308 | All-cause mortality, Subjects (%) (median follow-up 6.25 years): (10.2) % | HHF or CV death, Incidence Rate per 1000 PY (median follow-up 6.25 years): 13.4 per 1000 PY | HHF or CV death, Number of Subjects (median follow-up 6.25 years): 236 | HHF or CV death, Subjects (%) (median follow-up 6.25 years): (7.8) % | Secondary CV composite (cardiovascular death, non-fatal MI, non-fatal stroke and hospitalization for unstable angina; 4P-MACE), Number of Subjects (median follow-up 6.25 years): 398 | Primary CV composite (cardiovascular death, non-fatal MI, non-fatal stroke; 3P-MACE), Number of Subjects (median follow-up 6.25 years, added to standard of care): 356 | All-cause mortality, Subjects (%) [6]: 10.2% | HHF or CV death, Subjects (%) [6]: 7.8% | weight change (in words) (over time): modest decrease in weight

— patent publication US20240398818A1, “Cardiosafe Antidiabetic Therapy” (priority 2018, published 2024)
